Read-outs that look alike come from different tables or passages of the source.
Key:
[1] = Biopharmaceutical Classification System (BCS) classification; format: physicochemical; conditions: low solubility/dissolution rate and high permeability
Source text: Compound 1 can be classified as a BCS Class 2 compound (according to the Biopharmaceutical Classification System as defined by the “Guidance for Industry: Waiver of In Vivo Bioavailability and Bioequivalence studies for immediate release solid oral dosage forms based on a Biopharmaceutics Classification System”) which indicates it has a low solubility/dissolution rate and high permeability.

[2] = Phase 1a multiple ascending dose study (oral solution): plasma pharmacokinetics; format: in vivo, human; conditions: for concentration at 0.5 h: Hour 0.5; for concentration at 0.5 h / concentration at 1 h / concentration at 2 h / concentration at 3 h / concentration at 4 h / concentration at 6 h / concentration at 8 h / concentration at 12 h / concentration at 16 h / concentration at 24 h: read-out: Compound 1 concentration, Conc (SD); for concentration at 1 h: Hour 1; for concentration at 2 h: Hour 2; for concentration at 3 h: Hour 3; for concentration at 4 h: Hour 4; for concentration at 6 h: Hour 6; for concentration at 8 h: Hour 8; for concentration at 12 h: Hour 12; for concentration at 16 h: Hour 16; for concentration at 24 h: Hour 24
Method: Compound 1 was administered as the HCl-salt (prepared analogously to Example 2.1).
The secondary objective was to characterize the multiple dose pharmacokinetic (PK) parameters of Compound 1, after ascending doses. Secondary endpoints included determination of PK parameters in plasma and urine, fecal excretion and assessment of colonic biopsy samples.
Blood samples were collected at the following time points relative to dose administration on Day 1 and Day 7: pre-dose; 0.5, 1, 2, 3, 4, 6, 8, 12, 16 and 24 hours post dose. Analysis and concentration determinations were performed using a liquid chromatography-mass spectrometry and liquid chromatography-tandem mass spectrometry (LC/MS/MS) method.

[3] = Cohort 1, 60 mg once daily, Day 7
[4] = Cohort 2, 120 mg once daily, Day 7
[5] = Cohort 3, 240 mg once daily, Day 7
[6] = Cohort 4, 120 mg once daily, Day 7
[7] = Cohort 5, 60 mg once daily, Day 7
[8] = human, plasma, oral, 60 mg, Cohort 1, 60 mg once daily, Day 7
[9] = human, plasma, oral, 60 mg, Cohort 1, 60 mg, Day 1
[10] = human, plasma, oral, 60 mg, Cohort 5, 60 mg once daily, Day 7
[11] = human, plasma, oral, 60 mg, Cohort 5, 60 mg, Day 1
[12] = human, plasma, oral, 120 mg, Cohort 2, 120 mg once daily, Day 7
[13] = human, plasma, oral, 120 mg, Cohort 2, 120 mg, Day 1

Q: Which BCS classification [1] does the source give for CC(C)(C)OC(=O)N1CCN(Cc2ccn(Cc3ccc(Cl)cc3)c(=O)c2O)CC1 [Compound 1, tert-butyl 4-((1-(4-chlorobenzyl)-3-hydroxy-2-oxo-1,2-dihydropyridin-4-yl)methyl)piperazine-1-carboxylate] here?
A: Its BCS classification is “BCS Class 2”.

Q: What about the “ARAUC (accumulation ratio of AUC), mean” value [2, 3] of the same compound?
A: Its value is 2.1.

Q: What about the “ARCmax (accumulation ratio of Cmax), mean” value [2, 3] of the same compound?
A: Its value is 1.0.

Q: What about the “Tmax, median (range)” value ([2]; Cohort 1, 60 mg, Day 1) of the same compound?
A: Its value is 0.5 (0.5-1.0) h.

Q: And the “ARAUC (accumulation ratio of AUC), mean” value [2, 4]?
A: Its value is 1.8.

Q: What about the “ARCmax (accumulation ratio of Cmax), mean” value [2, 4] of the same compound?
A: The value was 1.2.

Q: And the “ARAUC (accumulation ratio of AUC), mean” value [2, 5]?
A: Its value is 1.4.

Q: And the “ARCmax (accumulation ratio of Cmax), mean” value [2, 5]?
A: The value was 1.0.

Q: What about the “ARAUC (accumulation ratio of AUC), mean” value [2, 6] of the same compound?
A: The value was 2.3.

Q: And the “ARCmax (accumulation ratio of Cmax), mean” value [2, 6]?
A: Its value is 1.3.

Q: And the “Tmax, median (range)” value ([2]; Cohort 4, 120 mg, Day 1)?
A: Its value is 0.5 (0.5-1.0) h.

Q: What about the “ARAUC (accumulation ratio of AUC), mean” value [2, 7] of the same compound?
A: The value was 3.0.

Q: And the “ARCmax (accumulation ratio of Cmax), mean” value [2, 7]?
A: The value was 1.3.

Q: And the concentration at 0.5 h [2, 8]?
A: The concentration at 0.5 h was 4.33 ng/mL.

Q: And the concentration at 1 h [2, 8]?
A: The concentration at 1 h was 3.02 ng/mL.

Q: What about the concentration at 2 h [2, 8] of the same compound?
A: Its concentration at 2 h is 1.85 ng/mL.

Q: What about the concentration at 3 h [2, 8] of the same compound?
A: The concentration at 3 h was 0 ng/mL.

Q: And the concentration at 4 h [2, 8]?
A: Its concentration at 4 h is 0 ng/mL.

Q: What about the concentration at 6 h [2, 8] of the same compound?
A: The concentration at 6 h was 0 ng/mL.

Q: And the concentration at 8 h [2, 8]?
A: Its concentration at 8 h is 0 ng/mL.

Q: What about the concentration at 12 h [2, 8] of the same compound?
A: Its concentration at 12 h is 0 ng/mL.

Q: What about the concentration at 16 h [2, 8] of the same compound?
A: Its concentration at 16 h is 0 ng/mL.

Q: What about the concentration at 24 h [2, 8] of the same compound?
A: The concentration at 24 h was 0 ng/mL.

Q: What about the AUC(0-t) ([2]; human, plasma, oral, 60 mg, Cohort 1, 60 mg once daily, Day 7, read-out: AUC(0-t), mean) of the same compound?
A: Its AUC(0-t) is 17 ng·h/mL.

Q: What about the Cmax ([2]; human, plasma, oral, 60 mg, Cohort 1, 60 mg once daily, Day 7, read-out: Cmax, mean) of the same compound?
A: The Cmax was 4.33 ng/mL.

Q: What about the concentration at 0.5 h [2, 9] of the same compound?
A: The concentration at 0.5 h was 3.88 ng/mL.

Q: What about the concentration at 1 h [2, 9] of the same compound?
A: Its concentration at 1 h is 3.16 ng/mL.

Q: What about the concentration at 4 h [2, 9] of the same compound?
A: Its concentration at 4 h is 0 ng/mL.

Q: What about the concentration at 6 h [2, 9] of the same compound?
A: The concentration at 6 h was 0 ng/mL.

Q: What about the concentration at 8 h [2, 9] of the same compound?
A: Its concentration at 8 h is 0 ng/mL.

Q: What about the concentration at 12 h [2, 9] of the same compound?
A: The concentration at 12 h was 0 ng/mL.

Q: What about the concentration at 16 h [2, 9] of the same compound?
A: The concentration at 16 h was 0 ng/mL.

Q: What about the concentration at 24 h [2, 9] of the same compound?
A: The concentration at 24 h was 0 ng/mL.

Q: What about the AUC(0-t) ([2]; human, plasma, oral, 60 mg, Cohort 1, 60 mg, Day 1, read-out: AUC(0-τ) column, AUClast is presented (footnote b), mean (SD)) of the same compound?
A: Its AUC(0-t) is 5.32 ng·h/mL.

Q: And the Cmax ([2]; human, plasma, oral, 60 mg, Cohort 1, 60 mg, Day 1, read-out: Cmax, mean (SD))?
A: Its Cmax is 4.11 ng/mL.

Q: And the concentration at 0.5 h [2, 10]?
A: Its concentration at 0.5 h is 6.24 ng/mL.

Q: And the concentration at 1 h [2, 10]?
A: Its concentration at 1 h is 4.6 ng/mL.

Q: And the concentration at 2 h [2, 10]?
A: Its concentration at 2 h is 2.57 ng/mL.

Q: What about the concentration at 3 h [2, 10] of the same compound?
A: The concentration at 3 h was 1.99 ng/mL.

Q: And the concentration at 4 h [2, 10]?
A: The concentration at 4 h was 1.62 ng/mL.

Q: And the concentration at 6 h [2, 10]?
A: Its concentration at 6 h is 2.15 ng/mL.

Q: What about the concentration at 8 h [2, 10] of the same compound?
A: Its concentration at 8 h is 2 ng/mL.

Q: What about the concentration at 12 h [2, 10] of the same compound?
A: The concentration at 12 h was 1.7 ng/mL.

Q: What about the concentration at 16 h [2, 10] of the same compound?
A: The concentration at 16 h was 1.59 ng/mL.

Q: What about the concentration at 24 h [2, 10] of the same compound?
A: The concentration at 24 h was 1.18 ng/mL.

Q: What about the AUC(0-t) ([2]; human, plasma, oral, 60 mg, Cohort 5, 60 mg once daily, Day 7, read-out: AUC(0-t), mean) of the same compound?
A: Its AUC(0-t) is 53.2 ng·h/mL.

Q: What about the Cmax ([2]; human, plasma, oral, 60 mg, Cohort 5, 60 mg once daily, Day 7, read-out: Cmax, mean) of the same compound?
A: Its Cmax is 6.31 ng/mL.

Q: And the concentration at 0.5 h [2, 11]?
A: Its concentration at 0.5 h is 4.83 ng/mL.

Q: What about the concentration at 1 h [2, 11] of the same compound?
A: Its concentration at 1 h is 3.94 ng/mL.

Q: What about the concentration at 3 h [2, 11] of the same compound?
A: The concentration at 3 h was 0 ng/mL.

Q: And the concentration at 4 h [2, 11]?
A: Its concentration at 4 h is 0 ng/mL.

Q: And the concentration at 6 h [2, 11]?
A: The concentration at 6 h was 0 ng/mL.

Q: What about the concentration at 8 h [2, 11] of the same compound?
A: The concentration at 8 h was 0 ng/mL.

Q: What about the concentration at 12 h [2, 11] of the same compound?
A: The concentration at 12 h was 0 ng/mL.

Q: And the concentration at 16 h [2, 11]?
A: Its concentration at 16 h is 0 ng/mL.

Q: What about the concentration at 24 h [2, 11] of the same compound?
A: Its concentration at 24 h is 0 ng/mL.

Q: What about the AUC ([2]; human, plasma, oral, 60 mg, Cohort 5, 60 mg, Day 1, read-out: AUC(0-τ), mean (SD)) of the same compound?
A: The AUC was 28.7 ng·h/mL.

Q: And the Cmax ([2]; human, plasma, oral, 60 mg, Cohort 5, 60 mg, Day 1, read-out: Cmax, mean (SD))?
A: The Cmax was 5.06 ng/mL.

Q: And the concentration at 0.5 h [2, 12]?
A: The concentration at 0.5 h was 11.1 ng/mL.

Q: And the concentration at 1 h [2, 12]?
A: Its concentration at 1 h is 7.7 ng/mL.

Q: What about the concentration at 2 h [2, 12] of the same compound?
A: The concentration at 2 h was 4.5 ng/mL.

Q: And the concentration at 3 h [2, 12]?
A: The concentration at 3 h was 3.19 ng/mL.

Q: What about the concentration at 4 h [2, 12] of the same compound?
A: Its concentration at 4 h is 1.6 ng/mL.

Q: And the concentration at 6 h [2, 12]?
A: The concentration at 6 h was 2.04 ng/mL.

Q: What about the concentration at 8 h [2, 12] of the same compound?
A: Its concentration at 8 h is 2.26 ng/mL.

Q: What about the concentration at 12 h [2, 12] of the same compound?
A: The concentration at 12 h was 1.41 ng/mL.

Q: And the concentration at 16 h [2, 12]?
A: The concentration at 16 h was 1.39 ng/mL.

Q: And the concentration at 24 h [2, 12]?
A: Its concentration at 24 h is 0 ng/mL.

Q: What about the AUC(0-t) ([2]; human, plasma, oral, 120 mg, Cohort 2, 120 mg once daily, Day 7, read-out: AUC(0-t), mean) of the same compound?
A: Its AUC(0-t) is 48.2 ng·h/mL.

Q: What about the Cmax ([2]; human, plasma, oral, 120 mg, Cohort 2, 120 mg once daily, Day 7, read-out: Cmax, mean) of the same compound?
A: Its Cmax is 11.4 ng/mL.

Q: And the concentration at 0.5 h [2, 13]?
A: The concentration at 0.5 h was 9.54 ng/mL.

Q: And the concentration at 1 h [2, 13]?
A: The concentration at 1 h was 6.08 ng/mL.

Reference: US20220175766A1, “COMPOSITIONS AND METHODS OF TREATMENT” (GB004, Inc., priority 2019, published 2022)
